Assay results: patent US12295983B2, “Use of extracts of the leaves of lemon verbena (Aloysia citriodora) for increasing the neuronal, cerebral availability of neurotransmitters selected from the group of serotonin, dopamine, noradrenaline” (Finzelberg GMBH & Co. KG, priority 2018, dated 2025)
Where two headings read alike, the source gives them in different places.

Key:
[1] = target: T1, dopamine reuptake in synaptosomes from rat cortex (Rattus norvegicus, UniProt P23977); conditions: read-out: Dopamine (IC50 μg/ml), literature value, cited from earlier work
T1 construct: Freshly isolated synaptosomes from rats were used; from tissue; host or cells: synaptosomes from rat cortex
T1 sequence (P23977 whole entry): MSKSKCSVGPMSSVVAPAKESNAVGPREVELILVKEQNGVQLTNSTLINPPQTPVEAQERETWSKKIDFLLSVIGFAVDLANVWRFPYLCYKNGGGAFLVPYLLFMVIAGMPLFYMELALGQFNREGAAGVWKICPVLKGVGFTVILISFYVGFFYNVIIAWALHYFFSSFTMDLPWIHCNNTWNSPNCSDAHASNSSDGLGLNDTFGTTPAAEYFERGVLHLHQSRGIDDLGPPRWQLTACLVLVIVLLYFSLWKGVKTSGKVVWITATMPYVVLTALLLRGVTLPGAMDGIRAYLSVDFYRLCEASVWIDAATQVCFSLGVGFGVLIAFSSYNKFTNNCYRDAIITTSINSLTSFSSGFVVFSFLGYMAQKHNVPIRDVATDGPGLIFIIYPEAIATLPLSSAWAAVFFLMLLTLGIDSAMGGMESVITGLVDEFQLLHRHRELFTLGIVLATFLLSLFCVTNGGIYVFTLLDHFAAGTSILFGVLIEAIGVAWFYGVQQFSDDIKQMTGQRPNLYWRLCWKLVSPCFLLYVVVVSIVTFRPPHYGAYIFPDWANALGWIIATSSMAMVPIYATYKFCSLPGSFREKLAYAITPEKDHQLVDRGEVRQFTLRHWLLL

[2] = target: T2, serotonin reuptake in synaptosomes from rat cortex (Rattus norvegicus, UniProt P31652); conditions: read-out: Serotonin (IC50 μg/ml); literature value, Markowitz et al.; cited from earlier work
T2 construct: Freshly isolated synaptosomes from rats were used; from tissue; host or cells: synaptosomes from rat cortex
T2 sequence (P31652 whole entry): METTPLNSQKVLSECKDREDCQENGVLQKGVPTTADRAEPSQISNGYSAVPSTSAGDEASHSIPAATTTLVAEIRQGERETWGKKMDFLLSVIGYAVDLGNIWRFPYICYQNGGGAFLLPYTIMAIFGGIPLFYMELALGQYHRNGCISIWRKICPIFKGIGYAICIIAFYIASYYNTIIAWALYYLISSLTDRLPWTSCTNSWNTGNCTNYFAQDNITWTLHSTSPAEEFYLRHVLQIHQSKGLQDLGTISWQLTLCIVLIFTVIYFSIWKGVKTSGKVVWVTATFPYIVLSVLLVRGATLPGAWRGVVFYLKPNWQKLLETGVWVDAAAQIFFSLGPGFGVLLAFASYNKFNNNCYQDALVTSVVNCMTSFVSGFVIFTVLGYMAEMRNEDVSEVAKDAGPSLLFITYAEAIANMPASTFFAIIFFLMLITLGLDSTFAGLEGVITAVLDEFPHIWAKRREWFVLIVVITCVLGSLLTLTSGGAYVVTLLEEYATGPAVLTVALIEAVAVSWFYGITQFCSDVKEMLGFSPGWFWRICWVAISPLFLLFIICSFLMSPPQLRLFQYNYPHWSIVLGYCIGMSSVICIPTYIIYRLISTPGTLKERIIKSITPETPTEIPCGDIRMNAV

[3] = system: noradrenaline reuptake in synaptosomes from rat cortex; conditions: literature value, cited from earlier work
[4] = target: T2, serotonin reuptake in synaptosomes from rat cortex; test: Serotonin reuptake test with [3H]-serotonin in freshly isolated synaptosomes; format: biochemical; conditions: ratio of reuptake IC50 values
Method: Freshly isolated synaptosomes from rats were used according to Perovic and Müller [Perovic S, Müller W E, 1995, Arzneimittelforschung 45; 1145-1148] for a dopamine reuptake test, and a serotonin reuptake test, and a noradrenaline reuptake test. [^3H]-dopamine, [^3H]-noradrenaline and [^3H]-serotonin, respectively, served as the ligands. The test substance was incubated with the synaptosomes and the corresponding ligand for 15 min at 37° C. in the dark. The samples were then transferred to GF/C filter plates, and washed cold twice, and dried, before the filter-bound radioactivity was measured with a microtitration plate counter (Microbeta, Wallac, Finland). For determining the 100% reuptake, the experiment was performed without test substances. The measured value for incubation with corresponding inhibitors (GBR12909 in the dopamine reuptake inhibition, protriptyline in the noradrenaline reuptake inhibition, and imipramine hydrochloride for the serotonin reuptake inhibition) was considered as a 0% uptake.

[5] = system: transgenic C. elegans strain CL4176 expressing human β-amyloid (Aβ 1-42); test: β-Amyloid-induced toxicity (paralysis, PT50) in C. elegans model; format: in vivo, Caenorhabditis elegans; conditions: 200 μg/ml; negative control 31.0 ± 0.4
Method: In order to test the effect on β-amyloid toxicity, the transgenic C. elegans strain CL4176, which can express human β-amyloid (Aβ 1-42), was employed. Aβ expression can be induced by increasing the temperature. Age-synchronized and treated worms were incubated at 16° C. for 48 hours. After increasing the temperature to 25° C. and incubation for 24 hours, the worms began to get paralyzed because of the toxicity of the Aβ oligomer. The paralysis was evaluated every 2 hours (experimental set-up according to Heiner et al.: Sideritis scardica extracts inhibit the aggregation of α-synuclein and β-amyloid peptides in Caenorhabditis elegans used as a model for neurodegenerative diseases. Planta Medica 81—PW_127, 2015). Substances that counteract this toxic effect of β-amyloid lead to a slower or later paralysis of the animals. Such substances delay the neurodegeneration, inter alia, in Alzheimer's dementia. The median (PT50), which is the time when exactly 50% of the nematodes were paralyzed, was used as a comparative value.

[6] = system: transgenic C. elegans strain CL2355 expressing human β-amyloid pan-neuronally; test: β-Amyloid-induced neuronal dysfunction, chemotaxis towards benzaldehyde; format: in vivo, Caenorhabditis elegans
Method: β-Amyloid species can damage neurons and trigger a dysfunction of neuronally controlled behavior. The transgenic C. elegans strain CL2355 expresses human β-amyloid on a pan-neuronal level. This leads to cognitive disorders, such as reduced chemotactic movement towards an attractant (benzaldehyde). In the experiments, the chemotaxis index, i.e., the proportion of worms moved towards the attractant on the agar plate, was measured. […] The experiment was performed in accordance with […] et al.

[7] = system: dopaminergic neurons of transgenic C. elegans strain BZ555; test: Protection of dopaminergic neurons from 6-OHDA-induced degeneration (GFP fluorescence); format: in vivo, Caenorhabditis elegans; conditions: worms + 50 mM 6-OHDA + 100 μg/ml; negative control 34.3 ± 4.3
Method: 6-Hydroxydopamine (6-OHDA) damages dopaminergic neurons, which is used in different animal models. The transgenic C. elegans strain BZ555 expresses green fluorescent protein in dopaminergic neurons. Thus, the 6-OHDA-induced neurodegeneration or the reduction thereof can be quantified by fluorescence microscopy. The worms were exposed to 50 mM 6-OHDA, which reduces the fluorescence intensity of the neurons because of the degeneration thereof. Bupropione, a selective noradrenaline and dopamine reuptake inhibitor (NDRI), serves as the positive control. Through the inhibition of the noradrenaline (NA) or dopamine (DA) transporters (reuptake), bupropion prevents the neurotoxin 6-OHDA from getting into and damaging the neurons.

## COC(=O)C(c1ccccc1)C1CCCCN1 (stereo not shown) [Methylphenidate]
[1]; Markowitz et al.
  IC50: 1.11 µM
[1]; Sommer et al.
  IC50: 0.489 µM
[2]
  IC50: 18.5 µM
[3]; Markowitz et al.
  Noradrenaline (IC50 μg/ml): 0.052 µg/mL
[3]; Sommer et al.
  Noradrenaline (IC50 μg/ml): 0.050 µg/mL
[4]
  activity ratio of serotonin to noradrenaline (factor): 86

## C[C@@H]1O[C@@H](O[C@@H]2[C@@H](O)[C@H](OCCc3ccc(O)c(O)c3)O[C@H](CO)[C@H]2OC(=O)/C=C/c2ccc(O)c(O)c2)[C@H](O)[C@H](O)[C@H]1O [acteoside]
[5]
  PT50 value: 32.8 ± 0.3 h
[6]; 200 μg/ml
  share of the chemotaxis index of the control strain CL2122 reached: about 88%
[6]; CL2355, 200 μg/ml, untreated 0.10 ± 0.04, control strain CL2122 0.50 ± 0.09
  Chemotaxis index: 0.45 ± 0.02 (p < 0.05)

## CC(NC(C)(C)C)C(=O)c1cccc(Cl)c1 (stereo not shown) [bupropion]
[7]
  Fluorescence intensity [% of untreated group]: 68.2 ± 7.7 % of untreated group
